From patent EP3041353B1, “COMPOSITIONS COMPRISING BACTERIOSTATIC AGENTS AND BRILLIANT BLUE G” (priority 2013, dated 2015)

Legend:
Bacillus sp. = experiment: Bacteriostatic effect of BAK with BBG/BBR: turbidity after 24 h incubation; type: cell-based; set-up: key to Bakterienwachstum nach 24 h Inkubation: +: Bakterienwachstum nach 24 h Inkubation; -: kein Bakterienwachstum nach 24 h Inkubation
Protocol: (§1) Zur Untersuchung des Einflusses von BBG auf die bakteriostatische Wirkung wurden Bakterien 24 h mit erfindungsgemäßen Zusammensetzungen, Benzalkoniumchlorid (BAK) und Octenidin (Oct) als Bakteriostatikum enthielten, inkubiert. Wenn sich die Inkubationsmischung trübte, wurde das als Bakterienwachstum interpretiert. Zum Vergleich wurde Brillantblau R (BBR) anstelle von BBG eingesetzt. Die Ergebnisse sind in den Tabellen 1-4 wiedergegeben. Tabelle 1: Einfluss von BBG und BBR auf die bakteriostatische Wirkung von BAK gegenüber Escherichia coli (E. coli), + = Bakterienwachstum nach 24 h Inkubation, - = kein Bakterienwachstum nach 24 h Inkubation, R = Brillantblau R (BBR), G = Brillantblau G (BBG).
Tabelle 2: Einfluss von BBG und BBR auf die bakteriostatische Wirkung von BAK gegenüber Bacillus sp., + = Bakterienwachstum nach 24 h Inkubation, - = kein Bakterienwachstum nach 24 h Inkubation, R = Brillantblau R (BBR), G = Brillantblau G (BBG).

Escherichia coli DH5α = experiment: Bacteriostatic effect of Octenidin with BBG: turbidity after 24 h incubation; type: cell-based; set-up: key: +: Bakterienwachstum nach 24 h Inkubation; -: kein Bakterienwachstum nach 24 h Inkubation
Protocol: as §1
(§2) Gram-negative Bakterien (hier E. coli) sind widerstandsfähiger als Gram-positive Bakterien (hier Bacillus sp.) und wachsen konzentrationsabhängig. […] Tabelle 3: Einfluss von BBG auf die bakteriostatische Wirkung von Octenidin (Oct) gegenüber Gram-negativen Bakterien., + = Bakterienwachstum nach 24 h Inkubation, - = kein Bakterienwachstum nach 24 h Inkubation, BBG = Brillantblau G.

[1] = tested on: Pseudomonas putida DSM 291; experiment: as above; type: cell-based; set-up: key: +: Bakterienwachstum nach 24 h Inkubation; -: kein Bakterienwachstum nach 24 h Inkubation
Protocol: as §1, §2

P2X7-Rezeptor = biological target: T1, P2X7-Rezeptor (Rattus norvegicus, UniProt Q64663); settings: Jiang et al. 2000; cited from earlier work
T1 sequence (Q64663 1-595): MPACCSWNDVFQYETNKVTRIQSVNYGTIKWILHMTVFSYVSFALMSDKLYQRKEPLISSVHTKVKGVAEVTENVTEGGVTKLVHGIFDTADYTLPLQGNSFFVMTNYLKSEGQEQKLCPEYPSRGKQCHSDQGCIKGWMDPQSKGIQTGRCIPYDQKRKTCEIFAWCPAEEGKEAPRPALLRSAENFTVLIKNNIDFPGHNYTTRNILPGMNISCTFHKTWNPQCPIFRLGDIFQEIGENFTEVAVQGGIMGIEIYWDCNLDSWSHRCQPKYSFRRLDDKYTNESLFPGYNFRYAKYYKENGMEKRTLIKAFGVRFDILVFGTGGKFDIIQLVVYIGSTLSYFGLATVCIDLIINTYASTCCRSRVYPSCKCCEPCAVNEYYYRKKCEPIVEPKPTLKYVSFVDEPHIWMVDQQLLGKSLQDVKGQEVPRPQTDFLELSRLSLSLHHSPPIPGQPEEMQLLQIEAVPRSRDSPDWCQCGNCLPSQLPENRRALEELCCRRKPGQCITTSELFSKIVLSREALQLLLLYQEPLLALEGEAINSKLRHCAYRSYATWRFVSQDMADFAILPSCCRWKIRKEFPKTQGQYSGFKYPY

Which results are given for `CCOc1ccc(Nc2ccc(C(=C3C=CC(=[N+](CC)Cc4cccc(S(=O)(=O)[O-])c4)C=C3C)c3ccc(N(CC)Cc4cccc(S(=O)(=O)O)c4)cc3C)cc2)cc1` [BBG, Brillantblau G]?
Bakterienwachstum nach 24 h Inkubation (Bacillus sp.; 0.007% G + BAK 0.001%): -; Bakterienwachstum nach 24 h Inkubation (Bacillus sp.; 0.007% G + BAK 0.01%): -; Bakterienwachstum nach 24 h Inkubation (Bacillus sp.; 0.030% G, Kein BAK): +; Einfluss auf das Bakterienwachstum (Bacillus sp.; dye alone, no BAK (rechte Spalte, Tabelle 2)): beeinflussen das Bakterienwachstum nicht; Bakterienwachstum nach 24 h Inkubation (Escherichia coli DH5α; 0,007% BBG + Octenidin 0,01%): -; Bakterienwachstum nach 24 h Inkubation (Escherichia coli DH5α; 0,007% BBG + Octenidin 0,002%): +; Bakterienwachstum nach 24 h Inkubation (Escherichia coli DH5α; 0,007% BBG + Octenidin 0,003%): -; Bakterienwachstum nach 24 h Inkubation (Escherichia coli DH5α; 0,007% BBG + Octenidin 0,005%): -; Bakterienwachstum nach 24 h Inkubation (Escherichia coli DH5α; 0,007% BBG + Octenidin 0,007%): -; Bakterienwachstum nach 24 h Inkubation (Escherichia coli DH5α; 0,007% BBG + Octenidin 0,009%): -; Bakterienwachstum nach 24 h Inkubation (Escherichia coli DH5α; 0,007% BBG, Octenidin 0%): +; Bakterienwachstum nach 24 h Inkubation (Escherichia coli DH5α; 0,015% BBG + Octenidin 0,01%): -; Bakterienwachstum nach 24 h Inkubation (Escherichia coli DH5α; 0,015% BBG + Octenidin 0,002%): +; Bakterienwachstum nach 24 h Inkubation (Escherichia coli DH5α; 0,015% BBG + Octenidin 0,003%): +; Bakterienwachstum nach 24 h Inkubation (Escherichia coli DH5α; 0,015% BBG + Octenidin 0,005%): +; Bakterienwachstum nach 24 h Inkubation (Escherichia coli DH5α; 0,015% BBG + Octenidin 0,007%): -; Bakterienwachstum nach 24 h Inkubation (Escherichia coli DH5α; 0,015% BBG + Octenidin 0,009%): -; Bakterienwachstum nach 24 h Inkubation (Escherichia coli DH5α; 0,015% BBG, Octenidin 0%): +; Bakterienwachstum nach 24 h Inkubation (Escherichia coli DH5α; 0,030% BBG + Octenidin 0,01%): +; Bakterienwachstum nach 24 h Inkubation (Escherichia coli DH5α; 0,030% BBG + Octenidin 0,002%): +; Bakterienwachstum nach 24 h Inkubation (Escherichia coli DH5α; 0,030% BBG + Octenidin 0,003%): +; Bakterienwachstum nach 24 h Inkubation (Escherichia coli DH5α; 0,030% BBG + Octenidin 0,005%): +; Bakterienwachstum nach 24 h Inkubation (Escherichia coli DH5α; 0,030% BBG + Octenidin 0,007%): +; Bakterienwachstum nach 24 h Inkubation (Escherichia coli DH5α; 0,030% BBG + Octenidin 0,009%): +; Bakterienwachstum nach 24 h Inkubation (Escherichia coli DH5α; 0,030% BBG, Octenidin 0%): +; Bakterienwachstum nach 24 h Inkubation ([1]; 0,007% BBG + Octenidin 0,01%): -; Bakterienwachstum nach 24 h Inkubation ([1]; 0,007% BBG + Octenidin 0,002%): +; Bakterienwachstum nach 24 h Inkubation ([1]; 0,007% BBG + Octenidin 0,003%): -; Bakterienwachstum nach 24 h Inkubation ([1]; 0,007% BBG + Octenidin 0,005%): -; Bakterienwachstum nach 24 h Inkubation ([1]; 0,007% BBG + Octenidin 0,007%): -; Bakterienwachstum nach 24 h Inkubation ([1]; 0,007% BBG + Octenidin 0,009%): -; Bakterienwachstum nach 24 h Inkubation ([1]; 0,007% BBG, Octenidin 0%): +; Bakterienwachstum nach 24 h Inkubation ([1]; 0,015% BBG + Octenidin 0,01%): -; Bakterienwachstum nach 24 h Inkubation ([1]; 0,015% BBG + Octenidin 0,002%): +; Bakterienwachstum nach 24 h Inkubation ([1]; 0,015% BBG + Octenidin 0,003%): +; Bakterienwachstum nach 24 h Inkubation ([1]; 0,015% BBG + Octenidin 0,005%): +; Bakterienwachstum nach 24 h Inkubation ([1]; 0,015% BBG + Octenidin 0,007%): -; Bakterienwachstum nach 24 h Inkubation ([1]; 0,015% BBG + Octenidin 0,009%): -; Bakterienwachstum nach 24 h Inkubation ([1]; 0,015% BBG, Octenidin 0%): +; Bakterienwachstum nach 24 h Inkubation ([1]; 0,030% BBG + Octenidin 0,01%): +; Bakterienwachstum nach 24 h Inkubation ([1]; 0,030% BBG + Octenidin 0,002%): +; Bakterienwachstum nach 24 h Inkubation ([1]; 0,030% BBG + Octenidin 0,003%): +; Bakterienwachstum nach 24 h Inkubation ([1]; 0,030% BBG + Octenidin 0,005%): +; Bakterienwachstum nach 24 h Inkubation ([1]; 0,030% BBG + Octenidin 0,007%): +; Bakterienwachstum nach 24 h Inkubation ([1]; 0,030% BBG + Octenidin 0,009%): +; Bakterienwachstum nach 24 h Inkubation ([1]; 0,030% BBG, Octenidin 0%): +; Hemmung des P2X7-Rezeptors (P2X7-Rezeptor): spezifisch nicht-kompetitiv hemmt
